Assay results from patent publication US20200400567A1, “FUSION POLYPEPTIDE” (PEKING UNIVERSITY, priority 2017, published 2020).
Where “and” joins values, the source holds several entries; their conditions need not be identical. Identical values can stand only once. Entries after “also recorded” stand apart in the source; their conditions may differ. Like-named read-outs stand apart in the source and are kept apart here. Values belong to the molecule of their own block, whether it stands above or below them.

Key:
human HTR2C receptor = format: cell-based; conditions: for agonist-induced change of GRAB-5-HT2.1 fluorescence signal: GRAB-5-HT2.1 in HEK293T cells; for antagonism of serotonin-induced increase of GRAB-5-HT2.1 fluorescence signal: antagonist added after serotonin
human DRD2 receptor = test: GRAB-GDA3.0 fluorescence response in HEK293T cells, drug perfusion; format: cell-based
Description: There are 5 subtypes of human dopamine receptors in the body, which are named DRD1-DRD5. For constructing a fluorescent sensor, the receptors were screened preliminarily by inserting a fluorescent protein at any position in the third intracellular loop of the receptor. […] Specifically, for the third intracellular loop of the human DRD2 receptor, the insertion sites were set every 15 amino acids. Human DRD2 receptors inserted with circular permutated fluorescent proteins at different positions were expressed in HEK293T cells, and drug perfusion experiments were conducted with dopamine. […] After the positions sensitive to conformational change were determined, the surrounding amino acid sites thereof were further screened. The sites surrounding the amino acid position 252 at N-terminus and the sites surrounding the amino acid position 357 at the C-terminus were combined and different sensors were constructed. The sensors were expressed in HEK293T cells and subjected to drug perfusion experiments with dopamine. […] The peptide linkers were GG at the N-terminus and GGAAA at the C-terminus.

[1] = system: GRAB-GDA3.0 signal in mushroom body (MB); test: Odor-stimulated GRAB-GDA3.0 signal in mushroom body, in vivo two-photon imaging; set-up: species or system Drosophila; conditions: 10 μM antagonist in imaging solution, n=6
Protocol: Drosophila were kept in a 25-degree incubator with a standard medium. […] The adult Drosophila to be tested were transferred to a new culture tube within 0-2 days after emergence, and left at room temperature for 8-12 days. Before the imaging, the Drosophila were first fixed in a small dish, and then the square skull part near the eye was surgically removed to expose part of the brain. The adipose tissue and air sacs near the antennal lobes to be imaged were surgically removed to prevent interference with the fluorescent signal. In order to further reduce the degradation of image quality caused by the movement of Drosophila during the imaging, surgical forceps were used to cut the muscles underneath its halter. Throughout the dissection and imaging procedures, the brain of Drosophila was kept in a pre-chilled physiological solution, and the formula thereof is as follows: […]
Drosophila imaging was performed using an Olympus two-photon microscope, including Olympus BX61 WI microscope, 25×NA: 1.05 water lens, and Ti:Sapphire laser mode-locked laser for two-photon excitation. For GRAB sensor imaging experiments, the wavelength of the […] was set to 950 nm in order to successfully excite the fluorescent protein to produce fluorescence. The odor molecule isoamyl acetate (IA) used for stimulating Drosophila was purchased from Sigma, and was diluted in mineral oil at a ratio of 1:100. In the experiment, the isoamyl acetate was further diluted 5-40 times by mixing with air. The air mixed with odor molecules was provided at a position about 1 cm away from the tentacles of the Drosophila through a cavity about 1 cm wide on the experimental table. The odor molecule of different concentrations was tested by controlling the airflow. Each imaging cycle was 17.8 seconds, of which 5 to 10 seconds was the time for providing specific odor molecules. After the imaging experiment for odor function, the imaging area was scanned layer by layer with high resolution setting to obtain the distribution information of the olfactory bulb, which was later identified based on the information of olfactory bulb distribution at the antennal lobe reported in the literature.
The transgenic Drosophila UAS-GRAB-GDA3.0 was constructed to express the GRAB-GDA3.0 sensor in specific cells, driven by the corresponding GAL4 strain. First, GRAB-GDA3.0 was expressed in dopaminergic neurons (DAN) in all Drosophila, and the response induced by odor (isoamyl acetate) was examined by in vivo two-photon imaging (FIG. 39A).
A pharmacological study was performed on GRAB-GDA3.0.
The rate of GDA signal attenuation between normal Drosophila and Drosophila with reduced DAT expression was compared (this is the experiment of gene level research using DAT-RNAi described later). In DAN, the dopamine transporter (DAT) is located in the presynaptic membrane and […] DA intermittently and cyclically from the synapse. DAT-RNAi was used to inhibit DAT expression in DAN (FIG. 40G).

human ADRA2A receptor = format: cell-based
Protocol: The perfusion system was set on a microscope, and including a solution-introduced system, an imaging cell, and a suction pump. During the perfusion process, the imaging cell was placed above the objective lens of the inverted microscope, and the slide with cultured cells was placed in the cell. The perfusion experiments of different drugs were performed by controlling the switches of the different pipes of the solution-introduced system. The perfusion speed was set to one drop or so per second. In order to ensure the stability of the focal plane, the liquid level was kept constant at all times, and the flow rate of each solution was adjusted accordingly. The aspiration speed was adjusted to maintain the liquid level in the cell over the slide.
The region of interest (ROI) and background area were selected manually prior to the perfusion experiment. The exposure time was set to less than 50 ms and the acquisition frequency was 5 seconds. The solution used for the perfusion was a physiological solution 4k (pH 7.3-7.4), which was used to formulate the drug to the desired concentration. The running time of the program was set to no more than 5 min. After using 4k to balance and stabilize the cells for about 60-90 s, the cells were perfused with drug for 60 s, and then washed with 4k. The excitation light for green fluorescent protein was 488 nm, and for red fluorescent protein was 568 nm. The laser intensity was adjusted according to the working state of the laser and the expression level of the cells.
After the end of the program, the time-fluorescence intensity data sheet was exported. The background was subtracted from the ROI to get the corresponding fluorescence value Ft, and the average value of the fluorescence value before adding the drug was used as the starting fluorescence F0 to calculate
The detection of the response of the GRAB sensor to the ligand (ΔF/F0) was performed by drug perfusion. The cells were maintained in a standard physiological solution, and the formula thereof is: […]
Fluorescence imaging data was processed using ImageJ software. For the fluorescence performance of GRAB sensors in HEK293T cells and neurons, the entire cell body was selected as the data processing region. The change in the fluorescence signal was usually indicated by its relative intensity change. The background area without the expression of the sensor was first subtracted from the fluorescence signal, so as to obtain the true expression intensity of the fluorescent protein.

[2] = system: human acetylcholine receptor M3R subtype; test: GRAB-ACh sensor fluorescence response to ACh, drug perfusion in HEK293T cells; format: cell-based
Protocol: After DNA encoding specific GRAB sensor was introduced into cells by transfection, fluorescence imaging combined with perfusion experiment was. The imaging capture of HEK293T cells was performed using an Olympus IX81 inverted microscope, 40×NA: 1.35 oil lens, 475/28 excitation light filter, and 515LP emission light filter. The optical signal was collected by a Zyla sCMOS DG-152V-Cle FI camera (Andor), and Lambda DG-4 from Sutter Instuments company was used as a fluorescent light source. The exposure time was set to less than 50 ms and the acquisition frequency was 5 seconds. The entire imaging system was overall controlled by micromanager software.
The detection of the response of the GRAB sensor to the ligand (ΔF/F0) was performed using a drug perfusion method. The cells were placed in a standard physiological solution, and the formula thereof is: […]
The pH of the physiological solution was adjusted to about 7.4, and the small molecule drug was diluted with a part of the physiological solution to formulate solutions of respective concentrations of the small molecule ligand. […] Unless explicitly specified, the concentration of isoproterenol (ISO) for perfusion was 2 μM, and the concentration of acetylcholine for perfusion was 100 μM.
The perfusion system was equipped on a microscope, including a solution-introduced system made of syringe for injection, a multi-way valve, an imaging workbench and a suction pump. During the perfusion process, the imaging workbench was placed above the objective lens of the inverted microscope, and then the slide on which cell plated were placed in the workbench. Perfusion of different drugs were performed by controlling the switches of different pipes. In order to control the level of the solution in the workbench, the perfusion speed was set to one drop or so per second. After each drug treatment, the cells were washed with a physiological solution for more than five minutes to ensure that there were no residual drugs that will affect subsequent experiments. After the end of each experiment, the perfusion pipe and the workbench were cleaned with 75% ethanol three times to ensure that the residual drugs and impurities were fully washed away.
Fluorescence imaging data was processed using ImageJ software. For the performance of GRAB sensors in HEK293T cells and neurons, the fluorescence of entire cell body was selected as the data processing region. For living Drosophila imaging, fluorescence images on the same Z axis were analyzed by ImageJ software. The change in the fluorescence signal was indicated by its relative difference. The signal of background area without the expression of the sensor was first subtracted from the fluorescence signal, so as to obtain the real expression of the intensity of the fluorescent protein. Then, by calculating the fluorescence value F after adding the drug and the average fluorescence value F0 before adding, the relative fluorescence change ΔF/F=(F−F0)/F0 was obtained as the fluorescence response of the sensor to a specific drug. The change of ΔF/F0 with time was further plotted by Origin 8.6 software.
Based on GRAB-ACh 1.0, this peptide linker was optimized. First, based on a flexible amino acid (glycine, alanine), the peptide segment was screened for optimal length. The specific strategy was to change the length of the peptide linkers at the N-terminus and C-terminus from 0 to 5 amino acids, respectively, and to randomly combine the N-terminus with C-terminus to obtain all possible permutations. Fusion protein expression vectors containing various arrangements were expressed in HEK293T cells and subjected to perfusion experiments.

[3] = system: human acetylcholine receptor M3R subtype; test: GRAB-ACh 2.0 kinetics, rapid local perfusion with high-speed line scanning; format: cell-based
Protocol: For the detection of GRAB sensor kinetics, a local drug delivery system was used for the experiment. The experiment was performed using an Olympus upright microscope BX51, wherein a 40×NA: 0.80 water lens was used for imaging, and a 710M camera (DVC) was used for image acquisition. The drug delivery system was controlled by ROE-200 (from Sutter instruments company), and the position of the drug delivery needle was controlled by the MPS-1 operating lever. For the dynamic characterization experiment of the sensor, the imaging was processed using a frequency of 50 HZ (with a resolution of 768×484 pixels) and a surface element partition of 2×2.
The Journal of pharmacology and experimental therapeutics 330, 660-668 (2009)) reduced the fluorescence signal in GRAB-ACh 2.0 expressing cells perfused with 100 μM ACh, with a smaller time constant of 762±75 ms (FIGS. 14b-c, right panel).
Target sequence in this assay (as listed by the source): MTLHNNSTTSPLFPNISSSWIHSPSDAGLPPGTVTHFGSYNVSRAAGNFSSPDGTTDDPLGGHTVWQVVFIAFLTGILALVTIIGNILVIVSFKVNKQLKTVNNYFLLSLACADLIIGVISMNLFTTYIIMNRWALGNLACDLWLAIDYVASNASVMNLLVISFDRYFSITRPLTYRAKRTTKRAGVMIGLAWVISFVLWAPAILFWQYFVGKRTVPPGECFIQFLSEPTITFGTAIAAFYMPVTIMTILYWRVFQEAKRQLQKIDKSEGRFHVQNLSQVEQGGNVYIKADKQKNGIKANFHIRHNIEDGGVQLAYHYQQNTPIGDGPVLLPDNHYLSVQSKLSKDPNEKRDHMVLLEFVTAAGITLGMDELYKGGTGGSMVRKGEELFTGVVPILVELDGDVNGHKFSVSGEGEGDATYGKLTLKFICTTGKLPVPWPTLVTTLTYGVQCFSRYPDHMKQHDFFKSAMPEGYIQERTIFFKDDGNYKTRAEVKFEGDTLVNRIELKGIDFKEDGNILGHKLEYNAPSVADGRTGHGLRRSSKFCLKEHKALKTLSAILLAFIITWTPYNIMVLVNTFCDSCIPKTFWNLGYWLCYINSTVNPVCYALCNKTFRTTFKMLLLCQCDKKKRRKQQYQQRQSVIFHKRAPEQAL

Molecule: CC(N)Cc1c[nH]c2ccc(OCc3cccs3)cc12 (centres unmarked) [BWT23C83]
agonist-induced change of GRAB-5-HT2.1 fluorescence signal (human HTR2C receptor): cannot cause the change; also recorded: cannot change the fluorescent signal

Molecule: NCCc1ccc(O)c(O)c1 [dopamine, Dopamine]
activation or block of GRAB-GDA3.0 (human DRD2 receptor; HEK293T cells): activated

Molecule: COc1cc(OC)c(C(=O)CCCCN2CCC3(CC2)NC(=O)NC3=O)cc1NS(=O)(=O)c1ccc(C(F)(F)F)cc1 [RS102221]
antagonism of serotonin-induced increase of GRAB-5-HT2.1 fluorescence signal (human HTR2C receptor): can antagonize; also recorded: can inhibit

Molecule: CN1CCN(c2nc3cc(C(F)(F)F)ccc3n3cccc23)CC1.O=C(O)/C=C\C(=O)O.O=C(O)/C=C\C(=O)O [CGS12066B]
agonist-induced change of GRAB-5-HT2.1 fluorescence signal (human HTR2C receptor): cannot cause the change; also recorded: cannot change the fluorescent signal

Molecule: Clc1cccc(COc2cncc(N3CCNCC3)n2)c1 [CP809]
agonist-induced change of GRAB-5-HT2.1 fluorescence signal (human HTR2C receptor): can cause the fluorescence signal change; also recorded: can induce changes in fluorescent signal

Molecule: O=C(CCCN1CCC(O)(c2ccc(Cl)cc2)CC1)c1ccc(F)cc1 [Haloperidol]
effect on odor (IA)-stimulated GDA signal in MB β' lobe ([1]; listed as halo): can be blocked
effect on odor (IA)-stimulated GDA signal in MB β' lobe ([1]; listed as haloperidol): completely blocked
activation or block of GRAB-GDA3.0 (human DRD2 receptor): blocked; also recorded: inhibited

Molecule: CC(C)NCC(O)c1ccc(O)c(O)c1 (centres unmarked) [ISO, Isoproterenol]
fluorescent signal change of GRAB-NE2.0 to ligand (human ADRA2A receptor; GRAB-NE2.0, saturated concentration): no response
activation of GRAB-NE2.1 fluorescence signal by ligand (human ADRA2A receptor; cells expressing GRAB-NE2.1): cannot

Molecule: Cc1cc(NC(=O)Nc2ccc3c(ccn3C)c2)sn1 [SB204741]
antagonism of serotonin-induced increase of GRAB-5-HT2.1 fluorescence signal (human HTR2C receptor): cannot antagonize; also recorded: failed to inhibit

Molecule: Nc1nc2c(ncn2[C@@H]2O[C@H](COP(=O)(O)OP(=O)(O)OP(O)(O)=S)[C@@H](O)[C@H]2O)c(=O)[nH]1 [GTPγS]
effect of Gαi inhibition on concentration-dependent curve of GRAB-NE2.0 to NE (human ADRA2A receptor; PTX co-transfection or GTPγS with digitonin): did not change the concentration-dependent curve

EC50 ([2]; ACh 10 nM to 100 μM, Boltzmann fit, n=4): ~700 nM
pEC50 ([2]; dose-dependent response to ACh): 6.12 ± 0.11
time constant of fluorescence increase ([3]; ACh perfusion, single scan): 185 ms
time constant of fluorescence decrease ([3]; Tio perfusion, single scan): 696 ms
average on time constant ([3]; local ACh perfusion, single exponential fit, n=18): 279.4 ± 32.6 ms and 280 ± 32 ms
average off time constant ([3]; local antagonist perfusion in 100 μM ACh, n=11): 762.3 ± 74.9 ms and 762 ± 75 ms
Molecule: GRAB-ACh 2.0: GRAB-ACh variant with GG-APSVA peptide linkers, SEQ ID NO: 16
ΔF/F0 peak response ([2]; 100 μM ACh perfusion, HEK293T cells): ~100% and 90.12±1.74% and 94.0±3.0% and 90%
ΔF/F0 response ([2]; ACh (100 μM), second round screening, HEK293T cells): ~0.9

Molecule: CCCN(CCC)CC1CCCCN1CCNC(=O)N1c2ccccc2C(=O)Nc2cccnc21 (centres unmarked) [AF-DX384]
effect of M3R antagonist on ACh-induced increase of fluorescence ([2]; GRAB-ACh 2.0 in HEK293T cell): completely blocked

Molecule: NC1=NCC2c3ccccc3Cc3ccccc3N12 (centres unmarked) [epinastine]
effect on odor (IA)-stimulated GDA signal in MB β' lobe [1]: cannot be blocked; also recorded: failed to be blocked

Molecule: NC[C@H](O)c1ccc(O)c(O)c1 [NE, Norepinephrine]
activation of GRAB-NE2.1 fluorescence signal by ligand (human ADRA2A receptor): can activate
fluorescent signal change of GRAB-NE2.0 to ligand (human ADRA2A receptor): exhibits a fluorescent signal change

Molecule: CNC[C@H](O)c1ccc(O)c(O)c1 [Epi, Epinephrine]
activation of GRAB-NE2.1 fluorescence signal by ligand (human ADRA2A receptor): can activate
fluorescent signal change of GRAB-NE2.0 to ligand (human ADRA2A receptor): exhibits a fluorescent signal change
